# Tests used:
# ERα [1] = target: T1, ERα (Homo sapiens, UniProt P03372); assay: Competitive 3H-estradiol binding assay, ERα; conditions: 1 nM 3H-estradiol, HEK293T cytosolic extract; read-out: Binding ERα pKi (converted)
# T1 sequence (P03372 1-595): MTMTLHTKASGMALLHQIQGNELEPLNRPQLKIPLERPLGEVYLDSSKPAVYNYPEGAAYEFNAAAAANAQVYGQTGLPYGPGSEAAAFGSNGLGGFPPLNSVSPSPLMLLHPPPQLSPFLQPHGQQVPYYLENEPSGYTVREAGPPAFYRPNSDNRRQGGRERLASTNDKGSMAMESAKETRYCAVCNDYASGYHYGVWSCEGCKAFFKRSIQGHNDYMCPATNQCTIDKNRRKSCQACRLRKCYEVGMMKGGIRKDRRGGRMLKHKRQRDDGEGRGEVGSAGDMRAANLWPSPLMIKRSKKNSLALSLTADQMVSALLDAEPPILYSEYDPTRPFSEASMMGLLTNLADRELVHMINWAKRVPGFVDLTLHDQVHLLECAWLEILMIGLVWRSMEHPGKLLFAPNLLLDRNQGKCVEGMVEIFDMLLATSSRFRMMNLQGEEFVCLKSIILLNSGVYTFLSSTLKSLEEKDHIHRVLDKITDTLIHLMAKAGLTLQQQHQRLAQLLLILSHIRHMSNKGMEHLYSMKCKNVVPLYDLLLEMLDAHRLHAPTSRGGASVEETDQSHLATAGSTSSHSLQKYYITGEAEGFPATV
# Protocol: (§1) HEK293T cells were transiently transfected for 48 hours with expression vectors encoding ERα or ERβ, before being serum starved for 4-6 hours. Cells were then harvested by scraping in ice-cold PBS and subsequently lysed using a cold buffer containing 10 mM Tris pH 7.4, 1 mM EDTA, 1 mM DTT before being subjected to polytron twice for 10 seconds. Cytosolic extracts were isolated by centrifugation at 15000 g for 30 minutes at 4° C. Competitive binding of the test compounds or the estradiol control was performed on 20 μL extract by overnight incubation at 4° C. in a total volume of 100 μL containing 1 nM ^3H-estradiol (Perkin Elmer, Boston, Mass.). The bound fraction was separated from the unbound one by the addition of 100 μL of Dextran coated charcoal, incubated for 10 minutes and subsequent centrifugation at 1000 rpm for 10 minutes. Samples (100 μL per sample) were then analyzed by liquid scintillation. Data was then analyzed using the curve fitting software GraphPad Prism.
# [2] = Unidirectional permeability across MatTek EpiOral buccal tissue; type: in vitro ADME, human
# Protocol: EpiOral→tissues plated in 24-well plates were obtained from MatTek Corporation (Ashland, Mass., USA). The assay buffer was Dulbeccos' Phosphate Buffered Saline (DPBS) without Ca & Mg chloride, pH 7.4. Each test compound was co-dosed with the two control compounds. Targeting dosing concentrations were 10 μM for each test compound and 100 μM for the two control compounds. Prior to the permeability assay onset, the tissues were preequilibrated in a pre-warmed EpiOral assay medium for one hour at 37° C. in a 5% CO2 incubator. The EpiOral assay medium was aspirated after the pre-equilibration, and the tissues were washed twice with the DPBS buffer. The receiver chambers were filled with 0.75 mL of the DPBS buffer, while the donor chambers received 0.4 mL of the dosing solutions. The assay plates were placed at 37° C. in a 5% CO2 incubator. The receiver samples (200 μL) were collected at 30, 60, and 120 minutes, and replaced with an equal volume of fresh pre-warmed receiver buffer (except for the last time point of 120 minutes). The donor sides were sampled at 0 and 120 minutes. The test compounds were then analyzed using LC-MS/MS.
# ERβ [3] = target: T2, ERβ (Homo sapiens, UniProt Q92731); assay: R-SAT functional assay, ERβ; type: cell-based; set-up: expressed in transfected cells; host or cells: transient transfection
# T2 sequence (Q92731 whole entry, species assumed): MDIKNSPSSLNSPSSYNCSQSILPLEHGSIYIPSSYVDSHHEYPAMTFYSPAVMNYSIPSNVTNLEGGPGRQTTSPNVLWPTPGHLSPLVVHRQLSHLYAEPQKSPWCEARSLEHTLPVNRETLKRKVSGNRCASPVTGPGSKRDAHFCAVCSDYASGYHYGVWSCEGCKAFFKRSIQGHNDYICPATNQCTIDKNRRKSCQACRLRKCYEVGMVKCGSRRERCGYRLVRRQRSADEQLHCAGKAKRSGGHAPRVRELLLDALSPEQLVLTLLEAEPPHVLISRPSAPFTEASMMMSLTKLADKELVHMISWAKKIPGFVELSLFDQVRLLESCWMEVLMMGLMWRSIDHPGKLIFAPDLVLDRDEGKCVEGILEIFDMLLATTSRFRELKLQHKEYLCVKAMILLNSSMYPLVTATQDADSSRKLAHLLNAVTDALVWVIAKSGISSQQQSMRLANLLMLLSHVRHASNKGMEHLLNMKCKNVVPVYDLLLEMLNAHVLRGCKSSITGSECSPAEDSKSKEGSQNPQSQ
# ERβ [4] = target: T2, ERβ; assay: Competitive 3H-estradiol binding assay, ERβ; set-up: expressed in transfected cells; host or cells: HEK293 cells, transient transfection
# Protocol: as §1, with “Cells” for “HEK293T cells were transiently transfected for 48 hours with expression vectors encoding ERα or ERβ, before being serum starved for 4-6 hours. Cells”
# ERα [5] = target: T1, ERα; assay: R-SAT functional assay, ERα; type: cell-based; set-up: expressed in transfected cells; host or cells: NIH-3T3 fibroblasts, transient transfection; conditions: NIH-3T3 cells; for EC50: na = not active, read-out: R-SAT Erα pEC50 (converted)
# Text: R-SAT® (Receptor Selection and Amplification Technology) is a cell-based functional assay that allows one to monitor receptor-dependent proliferative responses and has been described elsewhere. […] This process is achieved by partial cellular transformation via loss of contact inhibition and growth factor dependency. Monitoring is achieved by transfecting the cells with a β-galactosidase reporter gene vector whose expression is under a constitutively active promoter. Briefly, NIH-3T3 fibroblasts were plated overnight in 96-wells plates in DMEM 10% calf serum (Hyclone) and grown to 60-70% confluency prior to transfection. Transient transfections were performed using Polyfect (Qiagen) according to manufacturer's instructions. Typically a transfection mix would consist of the receptor and the β-galactosidase expression vectors. Sixteen hours post-transfection, cells were incubated with different doses of ligand in DMEM containing 30% Ultraculture (Hyclone) and 0.4% calf serum (Hyclone) to generate a dose response curve. […] Plates were read using a microplate reader at 420 nm. Data from R-SAT® assays were fit to the equation: r=A+B(x/(x+c)), where A=minimum response, B=maximum response minus minimum response, c=EC50, r=response, and x=concentration of ligand. Curves were generated using the curve fitting softwares Excel Fit and GraphPad Prism (San Diego, Calif.). Luciferase Reporter Gene Assay
SMILES,Ki (ERα [1]),permeability classification in MatTek EpiOral buccal tissue [2],EC50 (ERβ [3]),Ki (ERβ [4]),R-SAT Erα % Eff (ERα [5]),EC50 (ERα [5])
"Oc1ccc(C2(c3ccccc3F)CCC(F)(F)CC2)cc1 [Compound 8, 4-(4,4-Difluoro-1-(2-fluorophenyl)cyclohexyl)phenol]",79.4 nM,highly permeable,1.26 nM,6.31 nM,62%,1000 nM
Oc1ccc(C2(c3ccccc3Cl)CCCCC2)cc1F [Compound 957],200 nM,low permeability,1.58 nM,15.8 nM,58%,631 nM
Oc1ccc(C2(c3cccc(F)c3Cl)CCCCC2)cc1 [Compound 623],794 nM,low permeability,6.31 nM,6.31 nM,45%,398 nM

# Source: patent US9061981B2, “Diphenyl substituted cyclohexane derivatives, useful as modulators of the estrogen receptors beta” (Acadia Pharmaceuticals Inc., priority 2011, dated 2015)
